Data as given in publication PMC7400207, “It Takes Two: Dimerization Is Essential for the Broad-Spectrum Predatory and Defensive Activities of the Venom Peptide Mp1a from the Jack Jumper Ant Myrmecia pilosula” (Biomedicines, 2020).
Converted amounts (≈) assume the structure as drawn. “And” between values parts separate entries of the source, which are not always exact repeats. Equal entries are not always repeated.

Key:
Drosophila melanogaster = Drosophila melanogaster microinjection assay; assay type: in vivo; conditions: intrathoracic injection, 50 nL, adult female flies, lethality at 24 h; three dose-response curves, ± SEM
Procedure: The insecticidal activity of the chemically synthesized 1a and analogues thereof were determined by injection into adult female D. melanogaster aged 3–5 days (mass 0.7–0.9 mg) as described previously. Analogues were dissolved in water and intrathoracically injected using pulled glass capillaries at a volume of 50 nL per fruit fly, and the results were compared against an equivalent injection volume of water alone. All injections were performed in the morning or early afternoon. At 24 h post-injection flies were monitored for lethality. Dose–response curves were constructed using 7–10 doses per analogue (each dose tested in eight flies) and three separate dose–response curves were constructed for each analogue. The lethality in the groups receiving the analogues were adjusted using the respective control group lethality using the Henderson-Tilton formula [20]. The median lethal dose (LD50) of each analogue was calculated based on the three dose–response curves using GraphPad Prism 8.0 [21]. One-way ANOVA followed by Dunnett’s multiple comparison test were used to compare LD50 values.

S. aureus NARSA-VRS1 = conditions: taken from Dekan et al.; cited from earlier work
E. coli ATCC 25922 = conditions: taken from Dekan et al.; cited from earlier work
S. aureus NRS 17 = conditions: taken from Dekan et al.; cited from earlier work
[1] = tested on: K. pneumoniae ATCC BAA-2146; conditions: taken from Dekan et al.; cited from earlier work
P. aeruginosa ATCC 27853 = conditions: taken from Dekan et al.; cited from earlier work
HEK293 cells = conditions: HEK293, 24 h, resazurin; cited from earlier work
Procedure: (§1) Table 2 Summary of bioassay data for synthetic Mp1a and analogues, including effective concentration (EC50) for activation of F11 cells, concentrations that caused 50% inhibition (IC50) for inhibition of larval development of H. contortus; median lethal dose (LD50) for lethal insecticidal effects on D. melanogaster; concentrations required to induce 50% cell death (CC50) for effects on viability o | column: Cytotoxicity (CC50 µM) ^b

F11 cells = experiment: FLIPR calcium assay, activation of F11 cells; assay type: cell-based; conditions: F11 cells, FLIPR
Procedure: F11 cells were cultured as previously described. Cells were maintained on Ham’s F12 media supplemented with 10% fetal bovine serum (FBS), 100 µM hypoxanthine, 0.4 µM aminopterin, and 16 µM thymidine (Hybri-MaxTM, Sigma Aldrich, North Ryde, Australia). Then, 384-well imaging plates (Corning) were seeded 48 h prior to imaging resulting in 90–95% confluence at imaging. Cells were incubated for 30 min with the Calcium 4 assay component A according to the manufacturer’s instructions (Molecular Devices, Sunnyvale, CA, USA) in physiological salt solution (PSS; composition in mM: 140 NaCl, 11.5 D-glucose, 5.9 KCl, 1.4 MgCl2, 1.2 NaH2PO4, 5 NaHCO3, 1.8 CaCl2, 10 HEPES) at 37°C. Fluorescence was measured using a fluorescent imaging plate reader (FLIPR^TETRA) equipped with a CCD camera (Excitation: 470–490 nm, Emission: […]) (Molecular Devices, Sunnyvale, CA, USA). Signals were read every second for 10 s before, and 300 s after the addition of peptides in PSS supplemented with 0.1% bovine serum albumin. All data are the mean ± SEM of assays performed in triplicate. Maximum–minimum fluorescence in the 300 s period after peptide addition was recorded as the response. Concentration–response data were fitted with a four-parameter Hill equation (variable slope) using GraphPad Prism 8 to obtain effective concentration (EC50) values.

[2] = tested on: S. pneumoniae ATCC 700677; conditions: taken from Dekan et al.; cited from earlier work
human red blood cells = conditions: cited from earlier work
Procedure: as §1, with “Hemolysis (HC50” for “Cytotoxicity (CC50”

S. aureus NRS 1 = conditions: taken from Dekan et al.; cited from earlier work
A. baumannii ATCC 19606 = conditions: taken from Dekan et al.; cited from earlier work
S. aureus ATCC 43300 = conditions: taken from Dekan et al.; cited from earlier work
[3] = tested on: K. pneumoniae ATCC 700603; conditions: taken from Dekan et al.; cited from earlier work
S. aureus NARSA-VRS10 = conditions: taken from Dekan et al.; cited from earlier work

Question: Which results are given for `CC[C@H](C)[C@H](N)C(=O)N[C@@H](CC(=O)O)C(=O)N[C@@H](Cc1c[nH]c2ccccc12)C(=O)N[C@@H](CCCCN)C(=O)N[C@@H](CCCCN)C(=O)N[C@H](C(=O)N[C@@H](CC(=O)O)C(=O)N[C@@H](Cc1c[nH]c2ccccc12)C(=O)N[C@@H](CCCCN)C(=O)N[C@@H](CCCCN)C(=O)N[C@H](C(=O)N[C@@H](CO)C(=O)N[C@@H](CCCCN)C(=O)N[C@@H](CCCCN)C(=O)N[C@H](C(=O)N[C@H]1CSSC[C@@H](C(=O)N[C@@H](CCCCN)C(=O)N[C@@H](CCCCN)C(=O)N[C@H](C(=O)N[C@@H](CC(C)C)C(=O)N[C@@H](CCCCN)C(=O)N[C@@H](CCC(N)=O)C(N)=O)C(C)C)NC(=O)[C@H](C(C)C)NC(=O)[C@H]([C@@H](C)O)NC(=O)[C@H](CCCCN)NC(=O)[C@H](C(C)C)NC(=O)[C@H](CC(C)C)NC(=O)[C@H](C(C)C)NC(=O)[C@@H](NC(=O)[C@@H](NC(=O)CNC(=O)[C@H](CCCCN)NC(=O)[C@H](CO)NC(=O)[C@@H](NC(=O)[C@H](CC(C)C)NC(=O)CNC(=O)[C@@H](NC(=O)[C@@H](N)CC(C)C)[C@@H](C)CC)C(C)C)[C@@H](C)O)CSSC[C@@H](C(=O)N[C@@H](CCCCN)C(=O)N[C@@H](Cc2ccccc2)C(=O)N[C@@H](CC(C)C)C(N)=O)NC(=O)[C@H](C)NC(=O)[C@H](CCCCN)NC(=O)[C@H](CC(C)C)NC(=O)[C@H](CCSC)NC(=O)[C@H](C(C)C)NC(=O)[C@H](CCCCN)NC1=O)[C@@H](C)O)C(C)C)C(C)C` [Analogue 1a, ∆-myrtoxin-Mp1a]?
Answer: Insecticidal Activity (LD50) (Drosophila melanogaster): 260 pmol/g and 260.1 ± 16.6 pmol/g; MIC (S. aureus NARSA-VRS1): 3.2 to 6.4 µM; MIC (E. coli ATCC 25922): 0.1 to 0.2 µM; MIC (S. aureus NRS 17): 0.4 to 0.8 µM; MIC [1]: 0.1 to 0.2 µM; MIC (P. aeruginosa ATCC 27853): 0.4 to 0.8 µM; Cytotoxicity (CC50) (HEK293 cells): 600 nM; Concentration at which cytolysis (rapid increase in fluorescence followed by decrease to or below baseline) was observed (F11 cells): ≥ 1 µM; EC50 (F11 cells; Calcium 4 dye, max-min fluorescence in 300 s after peptide addition, PSS with 0.1% BSA, mean ± SEM, triplicate, read-out: Neuronal Cell Activation (EC50)): 850 ± 30 nM; MIC [2]: 0.4 to 0.8 µM; Hemolysis (HC50) (human red blood cells): 2.2 µM; MIC (S. aureus NRS 1): 3.2 µM (≈ 17.9 µg/mL); MIC (A. baumannii ATCC 19606): 0.025 µM (≈ 0.14 µg/mL); MIC (S. aureus ATCC 43300): 0.8 µM (≈ 4.49 µg/mL); MIC [3]: 0.4 to 0.8 µM; MIC (S. aureus NARSA-VRS10): 0.8 µM (≈ 4.49 µg/mL)
